Experiment in all cases: ERK1/2 phosphorylation
Format in all cases: cell-based

Test [1] deals with T1, hCTR T295A (Homo sapiens, UniProt P30988, T295A).
T1 construct: c-Myc (N); expressed in transfected cells
T1 sequence (P30988 25-474 T295A): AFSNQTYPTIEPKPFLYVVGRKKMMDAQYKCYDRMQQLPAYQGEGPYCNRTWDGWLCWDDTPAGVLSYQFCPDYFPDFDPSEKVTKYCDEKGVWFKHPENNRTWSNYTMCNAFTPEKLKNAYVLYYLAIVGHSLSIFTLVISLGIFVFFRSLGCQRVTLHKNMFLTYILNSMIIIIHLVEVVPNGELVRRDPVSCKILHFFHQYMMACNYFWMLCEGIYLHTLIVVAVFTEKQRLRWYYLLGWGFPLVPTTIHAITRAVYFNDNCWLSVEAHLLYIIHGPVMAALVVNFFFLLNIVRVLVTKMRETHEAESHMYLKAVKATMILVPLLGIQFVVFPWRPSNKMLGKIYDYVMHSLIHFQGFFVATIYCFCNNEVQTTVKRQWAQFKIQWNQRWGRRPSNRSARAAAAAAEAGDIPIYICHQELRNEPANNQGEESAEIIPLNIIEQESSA
As to conditions: CV1-FlpIn cells, mean ± S.E.M.; for Emax: pERK maximal response; for EC50: pERK, three-parameter logistic fit. Summed up: (§1)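 EC50 and Emax values derive from three-parameter logistic curves and combine functional affinity, efficacy and stimulus-response coupling. Responses are normalized to 10% FBS (6 min).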

The target in test [2] is T2, hCTR V375A (Homo sapiens, UniProt P30988, V375A).
T2 construct: c-Myc (N); expressed in transfected cells
T2 sequence (P30988 25-474 V375A): T1 sequence (P30988 25-474 T295A) with A271T, V351A
As to conditions: CV1-FlpIn cells, mean ± S.E.M.; for Emax: pERK maximal response; for EC50: pERK, three-parameter logistic fit. In short, it runs like this: as §1

The target of test [3] is T3, hCTR T280A (Homo sapiens, UniProt P30988, T280A).
T3 construct: expressed in transfected cells
T3 sequence (P30988 25-474 T280A): T1 sequence (P30988 25-474 T295A) with T256A, A271T
As to conditions: CV1-FlpIn cells, mean ± S.E.M.; for Emax: pERK maximal response; for EC50: pERK, three-parameter logistic fit. Summed up: as §1

The target in test [4] is T4, hCTR L291A (Homo sapiens, UniProt P30988, L291A).
T4 construct: expressed in transfected cells
T4 sequence (P30988 25-474 L291A): T1 sequence (P30988 25-474 T295A) with L267A, A271T
As to conditions: CV1-FlpIn cells, mean ± S.E.M.; for Emax: pERK maximal response. Summed up: as §1

The target of test [5] is T5, hCTR WT (Homo sapiens, UniProt P30988).
T5 construct: expressed in transfected cells
T5 sequence (P30988 25-474): T1 sequence (P30988 25-474 T295A) with A271T
As to conditions: CV1-FlpIn cells, mean ± S.E.M.; for Emax: pERK maximal response; for EC50: pERK, three-parameter logistic fit. Summed up: as §1

Substitutions are numbered along the chain they refer to. Where a SMILES comes first, the peptide text is derived from it. Bridges are numbered along the chain shown (N, C = ends).

We go through 5 molecules from paper PMC5908784, “Extracellular loops 2 and 3 of the calcitonin receptor selectively modify agonist binding and efficacy” (Biochemical Pharmacology, 2018).

For `CC[C@H](C)[C@H](NC(=O)[C@H](C)NC(=O)[C@@H](NC(=O)[C@H](CCC(N)=O)NC(=O)[C@@H]1CCCN1C(=O)[C@H](Cc1ccccc1)NC(=O)[C@@H](NC(=O)[C@H](Cc1c[nH]cn1)NC(=O)[C@H](Cc1ccccc1)NC(=O)[C@H](CCCCN)NC(=O)[C@H](CC(N)=O)NC(=O)[C@H](Cc1ccccc1)NC(=O)[C@H](CC(=O)O)NC(=O)[C@H](CCC(N)=O)NC(=O)[C@@H](NC(=O)[C@H](Cc1ccc(O)cc1)NC(=O)[C@@H](NC(=O)CNC(=O)[C@H](CC(C)C)NC(=O)[C@H](CCSC)NC(=O)[C@@H]1CSSC[C@H](N)C(=O)NCC(=O)N[C@@H](CC(N)=O)C(=O)N[C@@H](CC(C)C)C(=O)N[C@@H](CO)C(=O)N[C@@H]([C@@H](C)O)C(=O)N1)[C@@H](C)O)[C@@H](C)O)[C@@H](C)O)[C@@H](C)O)C(=O)NCC(=O)N[C@H](C(=O)NCC(=O)N[C@@H](C)C(=O)N1CCC[C@H]1C(N)=O)C(C)C` [hCT], the maximum response (Emax) (in general, the maximal effect, on the per cent scale that the assay sets) was found to be 48 ± 6% in test [1]; 67 ± 3% in test [2]; 168 ± 12% in test [3]; 72 ± 9% in test [4]; 100 ± 3% in test [5].
In the case of `CC(C)C[C@H](NC(=O)CNC(=O)[C@H](C)NC(=O)[C@H](CC(C)C)NC(=O)[C@H](CCCNC(=N)N)NC(=O)[C@H](Cc1cnc[nH]1)NC(=O)[C@@H](NC(=O)[C@@H](NC(=O)[C@@H]1CSSC[C@H](NC(=O)[C@H](C)N)C(=O)N[C@@H](CC(=O)O)C(=O)N[C@@H]([C@@H](C)O)C(=O)N[C@@H](C)C(=O)N[C@@H]([C@@H](C)O)C(=O)N1)C(C)C)[C@@H](C)O)C(=O)N[C@@H](CC(C)C)C(=O)N[C@@H](CO)C(=O)N[C@@H](CCCNC(=N)N)C(=O)N[C@@H](CO)C(=O)NCC(=O)NCC(=O)N[C@H](C(=O)N[C@H](C(=O)N[C@@H](CCCCN)C(=O)N[C@@H](CC(N)=O)C(=O)N[C@@H](CC(N)=O)C(=O)N[C@@H](Cc1ccccc1)C(=O)N[C@H](C(=O)N1CCC[C@H]1C(=O)N[C@H](C(=O)N[C@@H](CC(N)=O)C(=O)N[C@H](C(=O)NCC(=O)N[C@@H](CO)C(=O)N[C@@H](CCCCN)C(=O)N[C@@H](C)C(=O)N[C@@H](Cc1ccccc1)C(N)=O)C(C)C)[C@@H](C)O)C(C)C)C(C)C)C(C)C` [hαCGRP], the Emax in test [1] amounted to 22 ± 4%; in test [2], 58 ± 7%; in test [3] it was 106 ± 12%; in test [5], 100 ± 6%. The EC50 (commonly the concentration giving half of the maximal effect) in test [1] was 20.9 nM; in test [2] it was 110 nM; in test [3], 53.7 nM; in test [5], 77.6 nM.
Take `CSCC[C@H](NC(=O)CNC(=O)[C@H](CO)NC(=O)[C@H](Cc1ccccc1)NC(=O)[C@H](CCCNC(=N)N)NC(=O)[C@H](Cc1c[nH]cn1)NC(=O)[C@H](Cc1ccccc1)NC(=O)[C@H](CC(N)=O)NC(=O)[C@H](CC(N)=O)NC(=O)[C@H](CC(C)C)NC(=O)[C@H](CC(N)=O)NC(=O)[C@H](CCCNC(=N)N)NC(=O)[C@H](Cc1c[nH]c2ccccc12)NC(=O)[C@H](Cc1ccc(O)cc1)NC(=O)[C@H](C)NC(=O)[C@H](CO)NC(=O)[C@H](CC(C)C)NC(=O)[C@@H](NC(=O)[C@@H]1CSSC[C@H](N)C(=O)N[C@@H](CO)C(=O)N[C@@H](CC(N)=O)C(=O)N[C@@H](CC(C)C)C(=O)N[C@@H](CO)C(=O)N[C@@H]([C@@H](C)O)C(=O)N1)C(C)C)C(=O)NCC(=O)N[C@@H](Cc1ccccc1)C(=O)NCC(=O)N1CCC[C@H]1C(=O)N[C@@H](CCC(=O)O)C(=O)N[C@H](C(=O)N1CCC[C@H]1C(N)=O)[C@@H](C)O` [pCT] (H-CSNLSTCVLSAYWRNLNNFHRFSGMGFGPETP-NH2; disulfide 1-7): the Emax stood at 50 ± 5% in test [1]; 89 ± 4% in test [2]; 160 ± 10% in test [3]; 77 ± 5% in test [4]; 100 ± 3% in test [5]. For the same molecule, the EC50 in test [1] was 0.759 nM; in test [2], 2.63 nM; in test [3], 2.04 nM; in test [4] (pERK, three-parameter logistic fit), 9.55 nM; in test [5], 1.12 nM.
As to `CC(C)C[C@H](NC(=O)[C@H](CC(N)=O)NC(=O)[C@H](CC(N)=O)NC(=O)[C@H](CO)NC(=O)[C@H](CO)NC(=O)[C@H](CCCNC(=N)N)NC(=O)[C@@H](NC(=O)[C@H](CC(C)C)NC(=O)[C@H](Cc1ccccc1)NC(=O)[C@H](CC(N)=O)NC(=O)[C@H](C)NC(=O)[C@H](CC(C)C)NC(=O)[C@H](CCCNC(=N)N)NC(=O)[C@H](CCC(N)=O)NC(=O)[C@@H](NC(=O)[C@H](C)NC(=O)[C@@H]1CSSC[C@H](NC(=O)[C@@H](N)CCCCN)C(=O)N[C@@H](CC(N)=O)C(=O)N[C@@H]([C@@H](C)O)C(=O)N[C@@H](C)C(=O)N[C@@H]([C@@H](C)O)C(=O)N1)[C@@H](C)O)C(C)C)C(=O)NCC(=O)N1CCC[C@H]1C(=O)N[C@H](C(=O)N[C@@H](CC(C)C)C(=O)N1CCC[C@H]1C(=O)N1CCC[C@H]1C(=O)N[C@H](C(=O)N[C@@H](CC(N)=O)C(=O)N[C@H](C(=O)NCC(=O)N[C@@H](CO)C(=O)N[C@@H](CC(N)=O)C(=O)N[C@H](C(=O)N[C@@H](Cc1ccc(O)cc1)C(N)=O)[C@@H](C)O)C(C)C)[C@@H](C)O)C(C)C` [rAmy], the Emax in test [1] was found to be 28 ± 5%; in test [2], 77 ± 13%; in test [3], 110 ± 11%; in test [4], 41 ± 4%; in test [5], 100 ± 5%.
Turning to `CC(C)C[C@H](NC(=O)[C@H](CCCCN)NC(=O)CNC(=O)[C@H](CC(C)C)NC(=O)[C@@H](NC(=O)[C@@H]1CSSC[C@H](N)C(=O)N[C@@H](CO)C(=O)N[C@@H](CC(N)=O)C(=O)N[C@@H](CC(C)C)C(=O)N[C@@H](CO)C(=O)N[C@@H]([C@@H](C)O)C(=O)N1)C(C)C)C(=O)N[C@@H](CO)C(=O)N[C@@H](CCC(N)=O)C(=O)N[C@@H](CCC(=O)O)C(=O)N[C@@H](CC(C)C)C(=O)N[C@@H](Cc1c[nH]cn1)C(=O)N[C@@H](CCCCN)C(=O)N[C@@H](CC(C)C)C(=O)N[C@@H](CCC(N)=O)C(=O)N[C@H](C(=O)N[C@@H](Cc1ccc(O)cc1)C(=O)N1CCC[C@H]1C(=O)N[C@@H](CCCNC(=N)N)C(=O)N[C@H](C(=O)N[C@@H](CC(N)=O)C(=O)N[C@H](C(=O)NCC(=O)N[C@@H](CO)C(=O)NCC(=O)N[C@H](C(=O)N1CCC[C@H]1C(N)=O)[C@@H](C)O)[C@@H](C)O)[C@@H](C)O)[C@@H](C)O` [sCT], the Emax in test [1] turned out to be 49 ± 4%; in test [2], 70 ± 3%; in test [3], 158 ± 12%; in test [4], 107 ± 5%; in test [5] it was 100 ± 3%.
